# Test results: US4376770A, “Cephalosporin analogs for oral use” (Shionogi & Co., Ltd., priority 1980, dated 1983)
# Where two headings read alike, the source gives them in different places.
# Key:
# Escherichia coli EC-14 = assay: Protection test in mice challenged intraperitoneally with Escherichia coli EC-14; assay type: in vivo; conditions: for ED50: Escherichia coli, 168 h
# Protocol: To each group consisting of 5 to 10 mice is challenged 2 to 3×10^5 Escherichia coli EC-14 in 5% mucin intraperitoneally. After 1 hour and 5 hours, a suspension of the ester (1) in the foregoing experiment in 5% acacia solution is administered enterally using a tube into stomach. From the survival rate after 7 days, ED50 of the drug is calculated, and the value in mg/kg is interpreted as the corresponding carboxylic acid.
# For using as control, it is necessary to use the effect of the corresponding carboxylic acid. […] Then instead, the ED50 value of the corresponding carboxylic acid (2) on subcutaneous injection is assayed and this is used to evaluate the enteral absorption of the ester (1).
# The control value of ED50 for the carboxylic acid (2) is estimated as follows: To each group consisting of 5 to 10 mice challenged by Escherichia coli EC-14 intraperitoneally as in the case of oral experiment above is injected a solution of the carboxylic acid (2) in 0.7% aqueous sodium hydrogen carbonate subcutaneously after 1 and 5 hours after the challenge. The ED50 value is calculated from the survival rate from 7 days and expressed in mg/kg value.
# [1] = prior-art compound, statement in words; cited from earlier work
# [2] = prior-art compound, statement in words; cited from earlier work; remark: listed apart in the source
# [3] = p.o. 1 and 5 hours after challenge, survival after 7 days, value interpreted as the corresponding carboxylic acid, 10080 min
# [4] = EC14, po, p.o. 1 and 5 hours after challenge, survival after 7 days, value interpreted as the corresponding carboxylic acid, read-out: ED50 of Ester (1) p.o.
# [5] = EC14, sc, subcutaneous in 0.7% aqueous sodium hydrogen carbonate 1 and 5 hours after challenge, survival 7 days, control for ester, read-out: ED50 of Acid (2) subc.
# [6] = subcutaneous in 0.7% aqueous sodium hydrogen carbonate 1 and 5 hours after challenge, survival 7 days, control for ester, 10080 min
# [7] = subcutaneous in 0.7% aqueous sodium hydrogen carbonate 1 and 5 hours after challenge, survival 7 days, control for ester
compound,measurement,setting,value
7β-(2-cyanopropionamido)-7α-methoxy-3-(1-methyl-5-tetrazolyl)thiomethyl-1-dethia-1-oxa-3-cephem-4-carboxylic acid pivaloyloxymethyl ester [No. 1],ED50 of Ester (1) p.o.,"Escherichia coli EC-14; p.o. 1 and 5 hours after challenge, survival after 7 days, value interpreted as the corresponding carboxylic acid",1.39 mg/kg
"CCOC(=O)OC(C)OC(=O)C1=C(CSc2nnnn2C)CO[C@H]2N1C(=O)[C@]2(NC(=O)C(C#N)CC)OC (single isomer, unassigned) [No. 6, 7β-(2-cyano-n-butyryl)amino-7α-methoxy-3-(1-methyl-5-tetrazolyl)thiomethyl-1-dethia-1-oxa-3-cephem-4-carboxylic acid 1-(ethoxycarbonyloxy)ethyl ester]",ED50 of Ester (1) p.o.,Escherichia coli EC-14; [3],2.35 mg/kg
"CCOC(=O)OC(C)OC(=O)C1=C(CSc2nnnn2C)CO[C@H]2N1C(=O)[C@]2(NC(=O)C(C#N)CC)OC (single isomer, unassigned) [compound 5]",ED50,Escherichia coli EC-14; [4],2.22 mg/kg
"CCCC(C#N)C(=O)N[C@]1(OC)C(=O)N2C(C(=O)OC(C)OC(=O)OCC)=C(CSc3nnnn3C)CO[C@@H]21 (single isomer, unassigned) [compound 7]",ED50,Escherichia coli EC-14; [4],4.7 mg/kg
"CCCC(C#N)C(=O)N[C@]1(OC)C(=O)N2C(C(=O)OC(C)OC(=O)OCC)=C(CSc3nnnn3C)CO[C@@H]21 (single isomer, unassigned) [compound 8]",ED50 of Ester (1) p.o.,Escherichia coli EC-14; [3],2.82 mg/kg
CO[C@@]1(NC(=O)C(C)C#N)C(=O)N2C(C(=O)O)=C(CSc3nnnn3C)CO[C@@H]21 (some centres unmarked) [1 (Acid (2))],ED50,Escherichia coli EC-14; [5],1.68 mg/kg
CCC(C#N)C(=O)N[C@]1(OC)C(=O)N2C(C(=O)O)=C(CSc3nnnn3C)CO[C@@H]21 (some centres unmarked) [2 (Acid (2))],ED50,Escherichia coli EC-14; [5],0.47 mg/kg
CCCC(C#N)C(=O)N[C@]1(OC)C(=O)N2C(C(=O)O)=C(CSc3nnnn3C)CO[C@@H]21 (some centres unmarked) [3 (Acid (2))],ED50,Escherichia coli EC-14; [5],0.6 mg/kg
CCCCC(C#N)C(=O)N[C@]1(OC)C(=O)N2C(C(=O)O)=C(CSc3nnnn3C)CO[C@@H]21 (some centres unmarked) [4 (Acid (2))],ED50,Escherichia coli EC-14; [5],3.18 mg/kg
CCC(C#N)C(=O)N[C@]1(OC)C(=O)N2C(C(=O)O)=C(CSc3nnnn3C)CO[C@@H]21 (some centres unmarked) [5 (Acid (2))],ED50 of Acid (2) subc.,Escherichia coli EC-14; [6],0.45 mg/kg
CCC(C#N)C(=O)N[C@]1(OC)C(=O)N2C(C(=O)O)=C(CSc3nnnn3C)CO[C@@H]21 (some centres unmarked) [6 (Acid (2))],ED50 of Acid (2) subc.,Escherichia coli EC-14; [6],0.45 mg/kg
CCCC(C#N)C(=O)N[C@]1(OC)C(=O)N2C(C(=O)O)=C(CSc3nnnn3C)CO[C@@H]21 (some centres unmarked) [7 (Acid (2))],ED50 of Acid (2) subc.,Escherichia coli EC-14; [7],0.60 mg/kg
CC(=O)OCC1=C(C(=O)O)N2C(=O)[C@@H](NC(=O)CC#N)[C@H]2OC1 [7β-Cyanoacetamido-1-dethia-1-oxacephalosporanic acid],antibacterial activity,[1],weak antibacterial
CC(=O)OCC1=C(C(=O)OCOC(=O)C(C)(C)C)N2C(=O)[C@@H](NC(=O)CC#N)[C@H]2SC1 [7β-Cyanoacetamidocephalosporanic acid pivaloyloxymethyl ester],oral absorption,[2],does not show oral absorption sufficient as clinical drugs
CCCC(C#N)C(=O)N[C@]1(OC)C(=O)N2C(C(=O)O)=C(CSc3nnnn3C)CO[C@@H]21 (some centres unmarked) [8 (Acid (2))],ED50 of Acid (2) subc.,Escherichia coli EC-14; [7],0.60 mg/kg
CCC(C#N)C(=O)N[C@]1(OC)C(=O)N2C(C(=O)O)=C(CSc3nncs3)CO[C@@H]21 (some centres unmarked) [9 (Acid (2))],ED50,Escherichia coli EC-14; [5],0.77 mg/kg
CCC(C#N)C(=O)N[C@]1(OC)C(=O)N2C(C(=O)O)=C(CSc3nncs3)CO[C@@H]21 (some centres unmarked) [10 (Acid (2))],ED50 of Acid (2) subc.,Escherichia coli EC-14; [7],0.77 mg/kg
CCC(C#N)C(=O)N[C@]1(OC)C(=O)N2C(C(=O)O)=C(CSc3nnc(C)s3)CO[C@@H]21 (some centres unmarked) [11 (Acid (2))],ED50,Escherichia coli EC-14; [5],0.87 mg/kg
CCC(C#N)C(=O)N[C@]1(OC)C(=O)N2C(C(=O)OCOC(=O)C(C)(C)C)=C(CSc3nncs3)CO[C@@H]21 (some centres unmarked) [No. 9],ED50,Escherichia coli EC-14; [4],6.5 mg/kg
CCCC(C#N)C(=O)N[C@]1(OC)C(=O)N2C(C(=O)OCOC(=O)C(C)(C)C)=C(CSc3nnnn3C)CO[C@@H]21 (some centres unmarked) [compound 3],ED50,Escherichia coli EC-14; [4],5.32 mg/kg
CCCCC(C#N)C(=O)N[C@]1(OC)C(=O)N2C(C(=O)OCOC(=O)C(C)(C)C)=C(CSc3nnnn3C)CO[C@@H]21 (some centres unmarked) [compound 4],ED50,Escherichia coli EC-14; [4],29.8 mg/kg
CCOC(=O)OC(C)OC(=O)C1=C(CSc2nncs2)CO[C@H]2N1C(=O)[C@]2(NC(=O)C(C#N)CC)OC (some centres unmarked) [compound 10],ED50,Escherichia coli EC-14; [4],3.23 mg/kg
CCC(C#N)C(=O)N[C@]1(OC)C(=O)N2C(C(=O)OCOC(=O)C(C)(C)C)=C(CSc3nnc(C)s3)CO[C@@H]21 (some centres unmarked) [compound 11],ED50,Escherichia coli EC-14; [4],3.7 mg/kg
